This is an account of results in patent US9936701B2, “Herbicidal compounds” (Syngenta Participations AG, priority 2013, dated 2018).

The test system of data set [1] is a variety of test species. Description: Post-emergence herbicidal activity (glasshouse, sprayed after 8 days cultivation, evaluated after 13 days). It counts as in vivo. Conditions: rate 1000 g/Ha, scale 0-5. Set-up: key: 5=total damage to plant; 0=no damage to plant. The gist of the method:
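Pot-grown seedlings sprayed 8 days after sowing with active ingredient in acetone/water (50:50) plus 0.5% Tween 20. Glasshouse at 24/16 °C day/night, 14 h light, 65% humidity, watered twice daily. Damage scored after 13 days on a 0–5 scale (5 = total damage, 0 = none).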

In data set [2] the test system is a variety of test species. As to the kind of experiment: Pre-emergence herbicidal activity (glasshouse, sprayed one day after sowing, evaluated after 13 days). Type of data set: in vivo. More on the design: key: 5=total damage to plant; 0=no damage to plant. To be noted: application pre-emergence, rate 1000 g/Ha, scale 0-5. The gist of the method: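 Sow in pots of standard soil; after one day under glasshouse conditions, spray compound (acetone/water 50:50 formulation, 0.5% Tween 20, diluted in water). Grow on at 24/16 °C, 14 h light, 65% humidity with twice-daily watering. Assess at 13 days, 0–5 damage scale.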

`COC1=C(C)CN(c2cc(C(C)(C)C#N)on2)C1=O` [D12]: the melting point lay in the range of 103 to 105 °C. In data set [1], the “ABUTH (Abutilon theophrasti) damage score, application post-emergence” value (shortened to “ABUTH … application post-emergence”) was 4; the “ALOMY (Alopecurus myosuroides) damage score, application post-emergence” value (from here on “ALOMY … application post-emergence”) is given as 4; the “AMARE (Amaranthus retroflexus) damage score, application post-emergence” value (shortened to “AMARE … application post-emergence”) is 5; the “ECHCG (Echinochloa crus-galli) damage score, application post-emergence” value (“ECHCG … application post-emergence” below) is recorded as 5. In addition, in data set [1], the “SETFA (Setaria faberi) damage score, application post-emergence” value (from here on “SETFA (Setaria faberi) damage score”) was determined as 5 and the “ZEAMX (Zea mays) damage score, application post-emergence” value (“ZEAMX (Zea mays) damage score” for short) worked out at 2. In data set [2], the “Pre-emergence herbicidal damage score, ABUTH” value stood at 5; the “Pre-emergence herbicidal damage score, ALOMY” value was determined as 4; the “Pre-emergence herbicidal damage score, AMARE” value was found to be 5; the “Pre-emergence herbicidal damage score, ECHCG” value is on record as 5. Further, in data set [2], the “Pre-emergence herbicidal damage score, SETFA” value was 4 and the “Pre-emergence herbicidal damage score, ZEAMX” value stood at 2.
Compound `CCC(C)c1onc(N2C(=O)C(Cl)=C(C)C2O)c1C#N` (stereo not drawn) [A49] had a melting point of 107 to 109 °C. In data set [1], the “ABUTH … application post-emergence” value is listed as 5; the “ALOMY … application post-emergence” value amounted to 4; the “AMARE … application post-emergence” value came to 5; the “ECHCG … application post-emergence” value is on record as 5. Further, in data set [1], the “SETFA (Setaria faberi) damage score” value stood at 5 and the “ZEAMX (Zea mays) damage score” value was 2. In addition, in data set [2], the “Pre-emergence herbicidal damage score, ABUTH” value turned out to be 5; the “Pre-emergence herbicidal damage score, ALOMY” value is 3; the “Pre-emergence herbicidal damage score, AMARE” value came out at 5; the “Pre-emergence herbicidal damage score, ECHCG” value turned out to be 4. In data set [2], the “Pre-emergence herbicidal damage score, SETFA” value was 5 and the “Pre-emergence herbicidal damage score, ZEAMX” value worked out at 1.
In the case of `CC1=C(Cl)C(=O)N(c2cc(C(C)c3ccccc3)on2)C1O` (stereo not drawn) [A30], the melting point is 118 to 120 °C. In data set [1], the “ABUTH … application post-emergence” value is reported as 5; the “ALOMY … application post-emergence” value was 3; the “AMARE … application post-emergence” value came out at 5; the “ECHCG … application post-emergence” value is listed as 5. Moreover, in data set [1], the “SETFA (Setaria faberi) damage score” value was determined as 4 and the “ZEAMX (Zea mays) damage score” value was 2. Besides, in data set [2], the “Pre-emergence herbicidal damage score, ABUTH” value is recorded as 2; the “Pre-emergence herbicidal damage score, ALOMY” value is recorded as 2; the “Pre-emergence herbicidal damage score, AMARE” value was found to be 4; the “Pre-emergence herbicidal damage score, ECHCG” value was 1. Also, in data set [2], the “Pre-emergence herbicidal damage score, SETFA” value is given as 1 and the “Pre-emergence herbicidal damage score, ZEAMX” value is given as 1.
With `CCOCC(C)(C)c1cc(N2C(=O)C(Cl)=C(C)C2O)no1` (stereo not drawn) [A34], the melting point was in the range of 99 to 101 °C. In data set [1], the “ABUTH … application post-emergence” value was found to be 5; the “ALOMY … application post-emergence” value is given as 4; the “AMARE … application post-emergence” value is listed as 5; the “ECHCG … application post-emergence” value worked out at 5. In addition, in data set [1], the “SETFA (Setaria faberi) damage score” value was 4 and the “ZEAMX (Zea mays) damage score” value is 5. Further, in data set [2], the “Pre-emergence herbicidal damage score, ABUTH” value is recorded as 5; the “Pre-emergence herbicidal damage score, ALOMY” value is 3; the “Pre-emergence herbicidal damage score, AMARE” value came out at 5; the “Pre-emergence herbicidal damage score, ECHCG” value worked out at 5. For the same compound, in data set [2], the “Pre-emergence herbicidal damage score, SETFA” value came to 4 and the “Pre-emergence herbicidal damage score, ZEAMX” value amounted to 2.
In turn, `CC1=C(Cl)C(=O)N(c2noc(C(C)(C)C)c2C#N)C1O` (stereo not drawn) [A31, 5-tert-butyl-3-(4-chloro-2-hydroxy-3-methyl-5-oxo-2H-pyrrol-1-yl)isoxazole-4-carbonitrile] came in with a melting point of 174 to 176 °C. For the same compound, in data set [1], the “ABUTH … application post-emergence” value came to 5; the “ALOMY … application post-emergence” value is listed as 5; the “AMARE … application post-emergence” value was determined as 5; the “ECHCG … application post-emergence” value is given as 5. For the same compound, in data set [1], the “SETFA (Setaria faberi) damage score” value is 5 and the “ZEAMX (Zea mays) damage score” value was 4. Besides, in data set [2], the “Pre-emergence herbicidal damage score, ABUTH” value is 5; the “Pre-emergence herbicidal damage score, ALOMY” value is given as 3; the “Pre-emergence herbicidal damage score, AMARE” value was 5; the “Pre-emergence herbicidal damage score, ECHCG” value turned out to be 5. Moreover, in data set [2], the “Pre-emergence herbicidal damage score, SETFA” value came to 5 and the “Pre-emergence herbicidal damage score, ZEAMX” value turned out to be 3.
Compound `CC1=C(Cl)C(=O)N(c2cc(C3(C)CC3)on2)C1O` (stereo not drawn) [A26] showed a melting point of 177 to 178 °C. Also, in data set [1], the “ABUTH … application post-emergence” value is 5; the “ALOMY … application post-emergence” value turned out to be 4; the “AMARE … application post-emergence” value is 5; the “ECHCG … application post-emergence” value stood at 5. In addition, in data set [1], the “SETFA (Setaria faberi) damage score” value is 5 and the “ZEAMX (Zea mays) damage score” value was found to be 5. In addition, in data set [2], the “Pre-emergence herbicidal damage score, ABUTH” value was determined as 5; the “Pre-emergence herbicidal damage score, ALOMY” value is reported as 4; the “Pre-emergence herbicidal damage score, AMARE” value amounted to 5; the “Pre-emergence herbicidal damage score, ECHCG” value was 5. For the same compound, in data set [2], the “Pre-emergence herbicidal damage score, SETFA” value is 5 and the “Pre-emergence herbicidal damage score, ZEAMX” value is recorded as 3.
`COC1=C(C)C(=O)N(c2cc(C(C)(C)C#N)on2)C1O` (stereo not drawn) [G6] registered a melting point of 121 to 123 °C. Moreover, in data set [1], the “ABUTH … application post-emergence” value was 5; the “ALOMY … application post-emergence” value was found to be 5; the “AMARE … application post-emergence” value is recorded as 5; the “ECHCG … application post-emergence” value was 5. Besides, in data set [1], the “SETFA (Setaria faberi) damage score” value is 5 and the “ZEAMX (Zea mays) damage score” value is 5. Moreover, in data set [2], the “Pre-emergence herbicidal damage score, ABUTH” value stood at 5; the “Pre-emergence herbicidal damage score, ALOMY” value came out at 4; the “Pre-emergence herbicidal damage score, AMARE” value is 5; the “Pre-emergence herbicidal damage score, ECHCG” value was 4. In addition, in data set [2], the “Pre-emergence herbicidal damage score, SETFA” value amounted to 5 and the “Pre-emergence herbicidal damage score, ZEAMX” value stood at 4.
The compound `C=CCC(C)(C)c1cc(N2C(=O)C(Cl)=C(C)C2O)no1` (stereo not drawn) [A28] returned a melting point of 107 to 109 °C. In data set [1], the “ABUTH … application post-emergence” value was 5; the “ALOMY … application post-emergence” value is listed as 5; the “AMARE … application post-emergence” value was 5; the “ECHCG … application post-emergence” value amounted to 5. Further, in data set [1], the “SETFA (Setaria faberi) damage score” value turned out to be 5 and the “ZEAMX (Zea mays) damage score” value came to 4. Further, in data set [2], the “Pre-emergence herbicidal damage score, ABUTH” value is recorded as 5; the “Pre-emergence herbicidal damage score, ALOMY” value is reported as 4; the “Pre-emergence herbicidal damage score, AMARE” value came to 5; the “Pre-emergence herbicidal damage score, ECHCG” value came to 5. In data set [2], the “Pre-emergence herbicidal damage score, SETFA” value amounted to 4 and the “Pre-emergence herbicidal damage score, ZEAMX” value turned out to be 2.
Regarding `CC1=C(Cl)C(=O)N(c2noc(C(C)(C)C)c2C#N)C1OC(=O)C(C)(C)C` (stereo not drawn) [A95], the melting point lay within 95 to 97 °C. Further, in data set [1], the “ABUTH … application post-emergence” value is listed as 5; the “ALOMY … application post-emergence” value worked out at 5; the “AMARE … application post-emergence” value was determined as 5; the “ECHCG … application post-emergence” value is recorded as 5. In addition, in data set [1], the “SETFA (Setaria faberi) damage score” value worked out at 5 and the “ZEAMX (Zea mays) damage score” value was 3. Further, in data set [2], the “Pre-emergence herbicidal damage score, ABUTH” value is reported as 4; the “Pre-emergence herbicidal damage score, ALOMY” value is reported as 4; the “Pre-emergence herbicidal damage score, AMARE” value is on record as 5; the “Pre-emergence herbicidal damage score, ECHCG” value is 5. Also, in data set [2], the “Pre-emergence herbicidal damage score, SETFA” value was found to be 5 and the “Pre-emergence herbicidal damage score, ZEAMX” value was determined as 3.
Consider `CC1=C(Cl)C(=O)N(c2noc(C(C)(C)C)c2C)C1O` (stereo not drawn) [A20, 1-(5-tert-butyl-4-methyl-isoxazol-3-yl)-4-chloro-2-hydroxy-3-methyl-2H-pyrrol-5-one], for which the melting point lay in the range of 134 to 136 °C. Besides, in data set [1], the “ALOMY … application post-emergence” value is given as 5; the “AMARE … application post-emergence” value was found to be 4; the “ECHCG … application post-emergence” value was 5; the “SETFA (Setaria faberi) damage score” value was 5. Also, in data set [2], the “Pre-emergence herbicidal damage score, ALOMY” value came to 4; the “Pre-emergence herbicidal damage score, AMARE” value is 1; the “Pre-emergence herbicidal damage score, ECHCG” value was determined as 5; the “Pre-emergence herbicidal damage score, SETFA” value is 5.
